Several values for one entry are separate records, joined by “and”; a condition that tells them apart may be missing. Equal entries are not always repeated.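 In this assay, cells in 96-well plates receive the compound at five concentrations for 48 hours. Endpoints are linearly interpolated between the surrounding concentrations. GI50: concentration for 50% inhibition of growth. The concentration for full growth arrest is given as TGI.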
Tests used:
Experiment in all cases: NCI-60 cell line screen, 48 h
[1] = system: 786-0 renal
[2] = system: A549 NSCLC
[3] = system: ACHN renal
[4] = system: DU-145 prostate
[5] = system: HCT-15 colon
[6] = system: HS 578T breast
[7] = system: MDA-MB-231 breast
[8] = system: SK-OV-3 ovarian
[9] = system: SNB-19 CNS
[10] = system: SR leukemia

Row | Structure (SMILES) | GI50 [1] | TGI [1] | GI50 [2] | TGI [2] | GI50 [3] | TGI [3] | GI50 [4] | TGI [4] | GI50 [5] | TGI [5] | GI50 [6] | TGI [6] | GI50 [7] | TGI [7] | GI50 [8] | TGI [8] | GI50 [9] | TGI [9] [µM] | GI50 [10] | TGI [10]
1 | Nc1nn(C(=O)Nc2ccc(Cc3ccccc3)cc2)c2ccc(Cl)cc12 | 4.59 µM | 28.7 µM | 5.76 µM | > 89.2 µM | 0.0646 µM | 26.4 µM | 11.7 µM | 33.8 µM | 0.0821 µM | > 100 µM | 14.4 µM | 44.3 µM | 9.48 µM | 50.2 µM | 17.9 µM | 52 µM | 18.1 µM | 51.7 | 12.6 µM | 26.5 µM
2 | O=C(O[C@H]1CN[C@H](C#Cc2cc3ncnc(Nc4ccc(Cc5ccccc5)cc4)c3s2)C1)N1CCOCC1 | 7.3 µM | > 25 µM | 4.86 µM | > 25 µM | 3.53 µM | > 25 µM | 4 µM | 11 µM | 7.08 µM | > 25 µM | 3.06 µM | > 21.7 µM | 4.56 µM | 14.2 µM | 0.033 µM | > 25 µM | 7.73 µM | > 25 | 11.2 µM | > 25 µM
3 | Clc1cccc(Cn2cc(Cc3cn(Cc4cccc(Cl)c4)c4ccccc34)c3ccccc32)c1 | > 100 µM | > 100 µM | > 100 µM | > 100 µM | > 100 µM | > 100 µM | > 100 µM | > 100 µM | > 100 µM | > 100 µM | > 100 µM | > 100 µM | 52 µM | > 100 µM | > 100 µM | > 100 µM | > 100 µM | > 100 | > 100 µM | > 100 µM
4 | CCN1CCN(CCNc2nccc(-c3c(-c4cccc(O)c4)nc4sccn34)n2)S1(=O)=O | 22.1 µM and 7.86 µM | 32.5 µM and > 100 µM | 15.4 µM and 9.27 µM | 32.5 µM and > 100 µM | 6.72 µM and 4.13 µM | 32 µM and > 100 µM | 16.1 µM and 8.51 µM | 32.5 µM and > 100 µM | 11.7 µM and 8.63 µM | 32.5 µM and > 100 µM | 12.9 µM and 10 µM | 30.2 µM and > 100 µM | 10.5 µM and 7.3 µM | 32.5 µM and > 100 µM | 7.93 µM and 3.95 µM | 32.5 µM and 22.8 µM | > 32.5 µM and 71.5 µM | > 100 | 7.65 µM and 5.96 µM | 32.5 µM and 64.3 µM
5 | O=C1OCC2=C1C(c1cccc([N+](=O)[O-])c1)c1cc3c(cc1N2CCO)CCC3 (stereo not given) | 0.0822 µM | 16.8 µM | 0.223 µM | > 50 µM | 0.398 µM | > 50 µM | 0.19 µM | > 24.5 µM | 0.121 µM | > 50 µM | 0.18 µM | > 50 µM | 0.271 µM | > 19.3 µM | 0.226 µM | > 50 µM | 0.2 µM | > 50 | 0.0554 µM | > 36.3 µM
6 | COc1ccc(Nc2nc(NCc3ccccc3)c3ccccc3n2)cc1 | 6.31 µM | 20.9 µM | 3.78 µM | 16.5 µM | 3.38 µM | 14.1 µM | 8.75 µM | 21.9 µM | 3.69 µM | 19 µM | 10.9 µM | 30.5 µM | 4.3 µM | 16.9 µM | 10.4 µM | 22.1 µM | 9.72 µM | 24.1 | 2.19 µM | 6.01 µM
7 | C[C@@]12CCC[C@@](C)(C(=O)O)C1CC[C@]13C=C(CO)[C@](O)(CCC12)C3 (stereo not given in full) | > 100 µM | > 100 µM | > 100 µM | > 100 µM | > 100 µM | > 100 µM | > 100 µM | > 100 µM | > 100 µM | > 100 µM | > 100 µM | > 100 µM | > 100 µM | > 100 µM | > 100 µM | > 100 µM | > 100 µM | > 100 | > 100 µM | > 100 µM
8 | O=C(/C=C/c1ccccc1Cl)c1ccc(O)cc1 | 15.8 µM | 30 µM | 7.33 µM | 25.1 µM | 6.99 µM | 19.2 µM | 4.16 µM | 13.1 µM | 2.48 µM | 11.1 µM | 2.33 µM | 7.19 µM | 13.6 µM | 31 µM | 12.1 µM | 25.9 µM | 6.95 µM | 19.6 | 2.82 µM | > 24.4 µM
9 | COc1c(Nc2ncc(Cl)c(N[C@@H]3[C@H]4C=CC(C4)[C@@H]3C(N)=O)n2)ccc2c1CC[C@@H](N1CCOCC1)CC2 | 1.97 µM | 12.2 µM | 4.02 µM | 17.5 µM | 2.66 µM | 24.3 µM | 4.88 µM | 27.2 µM | 3.28 µM | 15.3 µM | 1.88 µM | 9 µM | 2.24 µM | 9.36 µM | 3.43 µM | 15.2 µM | 9.37 µM | 29.5 | 0.43 µM | 5.64 µM
10 | COc1ccc(S(=O)(=O)Nc2cc(/C=C\c3cc(OC)c(OC)c(OC)c3)cc(OC)c2OC)cc1OC | 0.444 µM | > 100 µM | 1.31 µM | > 100 µM | 0.928 µM | > 100 µM | 0.841 µM | > 100 µM | 0.671 µM | > 100 µM | 3.42 µM | > 100 µM | 2.43 µM | > 100 µM | 11.4 µM | > 100 µM | 1.11 µM | > 100 | 0.704 µM | > 100 µM
11 | Cn1c(=O)c(Sc2ccccc2F)cc2cnc(NC3CCOCC3)nc21 | > 25 µM | > 25 µM | > 25 µM | > 25 µM | > 25 µM | > 25 µM | > 25 µM | > 25 µM | > 25 µM | > 25 µM | > 25 µM | > 25 µM | > 25 µM | > 25 µM | > 25 µM | > 25 µM | > 25 µM | > 25 | > 25 µM | > 25 µM

— PubChem BioAssay (NCI)
